One test deals with T1, RORγ LBD-GST tagged (Homo sapiens, UniProt P51449).
T1 construct: RORγ LBD-GST tagged (Cat No. RORC-114H, Creative Biomart); purchased Creative Biomart RORC-114H
T1 sequence (P51449 269-508 limits assumed): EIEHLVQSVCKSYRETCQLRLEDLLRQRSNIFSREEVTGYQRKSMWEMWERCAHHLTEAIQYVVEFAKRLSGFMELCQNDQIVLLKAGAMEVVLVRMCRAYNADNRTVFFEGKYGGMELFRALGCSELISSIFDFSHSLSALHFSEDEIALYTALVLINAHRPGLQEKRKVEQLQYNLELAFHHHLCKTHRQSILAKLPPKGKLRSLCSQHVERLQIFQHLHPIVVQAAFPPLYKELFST
The experiment in a line: LanthaScreen TR-FRET RORγ coactivator assay. In kind it is biochemical. As to conditions: Fluorescein-D22 coactivator peptide, 1 hour room temperature. In a few lines: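 GST-tagged RORγ LBD (25 ng/reaction) was incubated in coregulator buffer D with 5 mM DTT and compound (top 3 μM, 7-fold steps, 7 doses), then with a mix containing 0.6 μM fluorescein-D22 peptide and 8 nM Tb anti-GST antibody. After 1 h at room temperature in the dark, 520/495 nm TR-FRET was read. IC50 came from log concentration versus percent inhibition.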
For orientation: TR-FRET usually uses a lanthanide donor and a delayed reading to cut background.

Test [1] has as its system IL-17 production, human PBMC cells. The experiment in a line: IL-17 production assay using human PBMC. As to conditions: Homo sapiens, PBMC, 72 h, human PBMC stimulated by cytostim for 3 days, IL-17 ELISA of supernatant. The class given is cell-based. The source says:
Test Example 2. IL-17 Production Assay Using Human PBMC
• 1. Human PBMC cells (Cat No. 70025.1, Zenbio) • 2. Lymphocyte medium (Cat No. LYMPH-1, Zenbio) • 3. TexMACS (Cat No. 130-097-196, Miltenyi) • 4. Cytostim-human (Cat No. 1130-092-173, Miltenyi) • 5. Human IL-17 ELISA (Cat No. D1700, R&D systems) • 6. Tecan Infinite M1000 plate reader (Tecan)
Experimental Procedure for IL-17 Production Assay
Cryopreserved peripheral blood human mononuclear cells (PBMCs) were rapidly thawed in warmed Lymphocyte media, and centrifuged cell suspension at 1000 rpm for 10 minutes. The supernatant was removed, and the cell pellets were gently resuspended in TexMACS media.
Human PBMC cells in TexMACS media were plated at 1×10^5 each well in triplicate. The test compounds at various concentrations or vehicle control (<0.5% DMSO) were added into cell culture. The cells were stimulated by cytostim (10 μL/mL) for 3 days in a humidified, 5% CO2 incubator at 37° C.
After incubation, the cell culture supernatant was harvested, and then removed particulates by centrifugation. Human IL-17 in the supernatant was measured using human IL-17 ELISA kit according to the manufacturer's protocol. IC50 values were determined using GraphPad Prism by plotting the compounds concentration versus percent inhibition.
(In general: An ELISA detects its analyte on a solid surface through an enzyme-linked reagent.)

The source of these data is US12187684B2, “Benzimidazole derivatives as modulators of retinoid-related orphan receptor gamma (RORγ) and pharmaceutical use thereof” (Jiangsu Hengrui Medicine Co., Ltd., priority 2018, dated 2025).

With `CS(=O)(=O)c1ccc(C(CO)c2nc3c(Cl)c(-c4ccccc4C(F)(F)F)c(Cl)cc3[nH]2)cc1` (centres unmarked) [Example 46, 2-(4,6-dichloro-5-(2-(trifluoromethyl)phenyl)-1H-benzo[d]imidazol-2-yl)-2-(4-(methylsulfonyl)phenyl)ethanol], the values for the IC50 (against RORγ LBD-GST tagged; in test [1]) were 0.048 µM and 0.018 µM, respectively.
Taken in the same sequence, the figures for `O=S(=O)(CC1CC1)c1ccc(Cc2nc3c(Cl)c(-c4ccccc4OC(F)(F)F)c(Cl)cc3[nH]2)cc1` [Example 66, 4,6-dichloro-2-(4-((cyclopropylmethyl)sulfonyl)benzyl)-5-(2-(trifluoromethoxy)phenyl)-1H-benzo[d]imidazole] were 0.002 µM and 0.01 µM.
The like results for `O=S(=O)(CC1CC1)c1ccc(C(CO)c2nc3c(Cl)c(-c4ccccc4OC(F)(F)F)c(Cl)cc3[nH]2)cc1` (centres unmarked) [Example 67, 2-(4-((cyclopropylmethyl)sulfonyl)phenyl)-2-(4,6-dichloro-5-(2-(trifluoromethoxy)phenyl)-1H-benzo[d]imidazol-2-yl)ethanol] were, in that order, 0.002 µM and 0.002 µM.
The like results for `O=S(=O)(CC1CC1)c1ccc(C(O)c2nc3c(Cl)c(-c4ccccc4OC(F)(F)F)c(Cl)cc3[nH]2)cc1` (centres unmarked) [Example 68, (4-((cyclopropylmethyl)sulfonyl)phenyl)(4,6-dichloro-5-(2-(trifluoromethoxy)phenyl)-1H-benzo[d]imidazol-2-yl)methanol] were, in that order, 0.03 µM and 0.004 µM.
With `O=S(=O)(CC1CC1)c1ccc(Cc2nc3c(Cl)c(-c4ccccc4C(F)(F)F)c(Cl)cc3[nH]2)cc1` [Example 69, 4,6-dichloro-2-(4-((cyclopropylmethyl)sulfonyl)benzyl)-5-(2-(trifluoromethyl)phenyl)-1H-benzo[d]imidazole], the IC50 – broadly, the concentration at which inhibition is half-maximal – against RORγ LBD-GST tagged stood at 0.007 µM; in test [1], 0.056 µM.
Taken in the same sequence, the figures for `O=S(=O)(CC1CC1)c1ccc(C(CO)c2nc3c(Cl)c(-c4ccccc4C(F)(F)F)c(Cl)cc3[nH]2)cc1` (centres unmarked) [Example 70, 2-(4-((cyclopropylmethyl)sulfonyl)phenyl)-2-(4,6-dichloro-5-(2-(trifluoromethyl)phenyl)-1H-benzo[d]imidazol-2-yl)ethanol] were 0.014 µM and 0.006 µM.
`O=S(=O)(CC1CC1)c1ccc(Cc2nc3c(Cl)c(-c4ccccc4OC(F)F)c(Cl)cc3[nH]2)cc1` [Example 72, 4,6-dichloro-2-(4-((cyclopropylmethyl)sulfonyl)benzyl)-5-(2-(difluoromethoxy)phenyl)-1H-benzo[d]imidazole]: the IC50 against RORγ LBD-GST tagged is 0.006 µM; in test [1], 0.003 µM.
Taken in the same sequence, the figures for `O=S(=O)(CC1CC1)c1ccc(C(CO)c2nc3c(Cl)c(-c4ccccc4OC(F)F)c(Cl)cc3[nH]2)cc1` (centres unmarked) [Example 73, 2-(4-((cyclopropylmethyl)sulfonyl)phenyl)-2-(4,6-dichloro-5-(2-(difluoromethoxy)phenyl)-1H-benzo[d]imidazol-2-yl)ethanol] were 0.029 µM and 0.001 µM.
The like results for `CCS(=O)(=O)c1ccc(C(CO)c2nc3c(Cl)c(-c4ccccc4OC(F)(F)F)c(Cl)cc3[nH]2)c(F)c1` (centres unmarked) [Example 77, 2-(4,6-dichloro-5-(2-(trifluoromethoxy)phenyl)-1H-benzo[d]imidazol-2-yl)-2-(4-(ethylsulfonyl)-2-fluorophenyl)ethanol] were, in that order, 0.021 µM and 0.017 µM.
Turning to `CCS(=O)(=O)c1ccc(C(O)c2nc3c(Cl)c(-c4ccccc4OC(F)(F)F)c(Cl)cc3[nH]2)c(F)c1` (centres unmarked) [Example 78, (4,6-dichloro-5-(2-(trifluoromethoxy)phenyl)-1H-benzo[d]imidazol-2-yl)(4-(ethylsulfonyl)-2-fluorophenyl)methanol], the results for the IC50 (on RORγ LBD-GST tagged; in test [1]) were 0.028 µM and 0.069 µM, respectively.
For `O=S(=O)(CC1CC1)c1ccc(Cc2nc3c(Cl)c(-c4ccccc4OC(F)(F)F)c(Cl)cc3[nH]2)c(F)c1` [Example 80, 4,6-dichloro-2-(4-((cyclopropylmethyl)sulfonyl)-2-fluorobenzyl)-5-(2-(trifluoromethoxy)phenyl)-1H-benzo[d]imidazole], the IC50 at RORγ LBD-GST tagged came out at 0.031 µM; in test [1], 0.013 µM.
Taken in the same sequence, the figures for `O=S(=O)(CC1CC1)c1ccc(C(CO)c2nc3c(Cl)c(-c4ccccc4OC(F)(F)F)c(Cl)cc3[nH]2)c(F)c1` (centres unmarked) [Example 81, 2-(4-((cyclopropylmethyl)sulfonyl)-2-fluorophenyl)-2-(4,6-dichloro-5-(2-(trifluoromethoxy)phenyl)-1H-benzo[d]imidazol-2-yl)ethanol] were 0.035 µM and 0.003 µM.
Take `CCS(=O)(=O)c1ccc(C(CO)c2nc3c(Cl)c(-c4ccccc4OC(F)F)c(Cl)cc3[nH]2)c(F)c1` (centres unmarked) [Example 84, 2-(4,6-dichloro-5-(2-(difluoromethoxy)phenyl)-1H-benzo[d]imidazol-2-yl)-2-(4-(ethylsulfonyl)-2-fluorophenyl)ethanol]: the IC50 on RORγ LBD-GST tagged worked out at 0.019 µM; in test [1] it was 0.013 µM.
As to `CCS(=O)(=O)c1ccc(Cc2nc3c(Cl)c(-c4ccccc4OC(F)(F)F)c(Cl)cc3[nH]2)c(Cl)c1` [Example 86, 4,6-dichloro-2-(2-chloro-4-(ethylsulfonyl)benzyl)-5-(2-(trifluoromethoxy)phenyl)-1H-benzo[d]imidazole], the IC50 against RORγ LBD-GST tagged was found to be 0.075 µM; in test [1], 0.023 µM.
Consider `O=S(=O)(CC1CC1)c1ccc(C(CO)c2nc3c(Cl)c(-c4ccccc4OC(F)F)c(Cl)cc3[nH]2)c(F)c1` (centres unmarked) [Example 99, 2-(4-((cyclopropylmethyl)sulfonyl)-2-fluorophenyl)-2-(4,6-dichloro-5-(2-(difluoromethoxy)phenyl)-1H-benzo[d]imidazol-2-yl)ethanol], for which the IC50 worked out at 0.025 µM against RORγ LBD-GST tagged and 0.0024 µM in test [1].
Taken in the same sequence, the figures for `O=S(=O)(CC1CC1)c1ccc(C(O)c2nc3c(Cl)c(-c4ccccc4OC(F)F)c(Cl)cc3[nH]2)c(F)c1` (centres unmarked) [Example 100, (4-((cyclopropylmethyl)sulfonyl)-2-fluorophenyl)(4,6-dichloro-5-(2-(difluoromethoxy)phenyl)-1H-benzo[d]imidazol-2-yl)methanol] were 0.014 µM and 0.0013 µM.
The like results for `CCS(=O)(=O)c1ccc(C(CO)c2nc3cc(-c4ccccc4OC(F)(F)F)c(Cl)cc3[nH]2)cc1` (centres unmarked) [Example 119, 2-(6-chloro-5-(2-(trifluoromethoxy)phenyl)-1H-benzo[d]imidazol-2-yl)-2-(4-(ethylsulfonyl)phenyl)ethanol] were, in that order, 0.034 µM and 0.124 µM.
`O=S(=O)(NC1CC1)c1ccc(C(CO)c2nc3c(Cl)c(-c4ccccc4OC(F)(F)F)c(Cl)cc3[nH]2)cc1` (centres unmarked) [Example 123, N-cyclopropyl-4-(1-(4,6-dichloro-5-(2-(trifluoromethoxy)phenyl)-1H-benzo[d]imidazol-2-yl)-2-hydroxyethyl)benzenesulfonamide]: the IC50 against RORγ LBD-GST tagged stood at 0.03 µM; in test [1], 0.058 µM.
For `CC(C)Oc1ccccc1-c1cc2nc(C(CO)c3ccc(S(=O)(=O)CC4CC4)cc3)[nH]c2cc1Cl` (centres unmarked) [Example 124, 2-(6-chloro-5-(2-isopropoxyphenyl)-1H-benzo[d]imidazol-2-yl)-2-(4-((cyclopropylmethyl)sulfonyl)phenyl)ethanol], the IC50 was 0.205 µM at RORγ LBD-GST tagged and 0.032 µM in test [1].
